US9993494B2, “Compositions and methods for treating fibrotic disease” (eFFECTOR Therapeutics, Inc., priority 2014, dated 2018)

System: normal human lung fibroblasts
Assay: Ribosomal profiling: translational efficiency in TGFβ-treated fibroblasts
Format: cell-based
Summary of the method: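 Genome-wide RPF and total RNA libraries (ARTseq, RNA-Seq) were made from lysates of cycloheximide-treated, PBS-washed cells. After trimming and human-genome mapping, per-gene coding-region counts were compared between RPF and RNA for translational efficiency. Genes scoring low in either fraction were dropped.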

Question: Which results are given for TGFβ?
Answer: change in translational profile of CTPS caused by TGFβ (ENSG00000171793, Control vs. TGFβ): D (D = <1.0 to 1.5); Log2 TE RPS21 (ENSG00000171858, 5 replicates): 1.846; Log2 TE RPS7 (ENSG00000171863, 5 replicates): 1.549; Log2 TE QARS (ENSG00000172053, 5 replicates): 1.362; change in translational profile of QARS caused by TGFβ (ENSG00000172053, Control vs. TGFβ): D (D = <1.0 to 1.5); Log2 TE RPL38 (ENSG00000172809, 5 replicates): 1.353; change in translational profile of RPL38 caused by TGFβ (ENSG00000172809, Control vs. TGFβ): E (E = <1.5 to 2.5); Log2 TE HSPB7 (ENSG00000173641, 5 replicates): 1.292; change in translational profile of MRPL45 caused by TGFβ (ENSG00000174100, Control vs. TGFβ): D (D = <1.0 to 1.5); Log2 TE EVX2 (ENSG00000174279, 5 replicates): 2.887; Log2 TE RPL4 (ENSG00000174444, 5 replicates): 1.688; change in translational profile of RPL4 caused by TGFβ (ENSG00000174444, Control vs. TGFβ): E (E = <1.5 to 2.5); Log2 TE RPL15 (ENSG00000174748, 5 replicates): 1.254; change in translational profile of RPL15 caused by TGFβ (ENSG00000174748, Control vs. TGFβ): D (D = <1.0 to 1.5); Log2 TE DES (ENSG00000175084, 5 replicates): 1.204; change in translational profile of DES caused by TGFβ (ENSG00000175084, Control vs. TGFβ): E (E = <1.5 to 2.5); Log2 TE CST6 (ENSG00000175315, 5 replicates): 1.241; Log2 TE EIF3F (ENSG00000175390, 5 replicates): 1.29; change in translational profile of EIF3F caused by TGFβ (ENSG00000175390, Control vs. TGFβ): D (D = <1.0 to 1.5); Log2 TE CLCF1 (ENSG00000175505, 5 replicates): 1.594; change in translational profile of CLCF1 caused by TGFβ (ENSG00000175505, Control vs. TGFβ): E (E = <1.5 to 2.5); Log2 TE AMIGO3 (ENSG00000176020, 5 replicates): −1.314; change in translational profile of AMIGO3 caused by TGFβ (ENSG00000176020, Control vs. TGFβ): C (C = <−1.0 to −1.5); Log2 TE C14orf49 (ENSG00000176438, 5 replicates): −1.044; change in translational profile of C14orf49 caused by TGFβ (ENSG00000176438, Control vs. TGFβ): C (C = <−1.0 to −1.5); Log2 TE RPLP2 (ENSG00000177600, 5 replicates): 1.694; change in translational profile of RPLP2 caused by TGFβ (ENSG00000177600, Control vs. TGFβ): E (E = <1.5 to 2.5); Log2 TE RPS27 (ENSG00000177954, 5 replicates): 1.429; change in translational profile of IMPDH2 caused by TGFβ (ENSG00000178035, Control vs. TGFβ): D (D = <1.0 to 1.5); Log2 TE DNAJC22 (ENSG00000178401, 5 replicates): −1.189; change in translational profile of DNAJC22 caused by TGFβ (ENSG00000178401, Control vs. TGFβ): B (B = <−1.5 to −2.5); Log2 TE YOD1 (ENSG00000180667, 5 replicates): 1.146; Log2 TE PGBD4 (ENSG00000182405, 5 replicates): 1.055; Log2 TE RPL35A (ENSG00000182899, 5 replicates): 1.627; change in translational profile of RPL35A caused by TGFβ (ENSG00000182899, Control vs. TGFβ): E (E = <1.5 to 2.5); change in translational profile of LENG9 caused by TGFβ (ENSG00000182909, Control vs. TGFβ): D (D = <1.0 to 1.5); change in translational profile of C22orf32 caused by TGFβ (ENSG00000183172, Control vs. TGFβ): D (D = <1.0 to 1.5); Log2 TE CHEK2 (ENSG00000183765, 5 replicates): −1.457; change in translational profile of NPW caused by TGFβ (ENSG00000183971, Control vs. TGFβ): D (D = <1.0 to 1.5); Log2 TE ALDH1A3 (ENSG00000184254, 5 replicates): −1.327; Log2 TE PDE4B (ENSG00000184588, 5 replicates): −2.021; change in translational profile of PDE4B caused by TGFβ (ENSG00000184588, Control vs. TGFβ): B (B = <−1.5 to −2.5); Log2 TE CDCA2 (ENSG00000184661, 5 replicates): −1.573; Log2 TE 5-Sep (ENSG00000184702, 5 replicates): 1.209; change in translational profile of ROBO2 caused by TGFβ (ENSG00000185008, Control vs. TGFβ): C (C = <−1.0 to −1.5); Log2 TE SEMA4B (ENSG00000185033, 5 replicates): −1.413; Log2 TE SH3BGR (ENSG00000185437, 5 replicates): 1.121; change in translational profile of PTCH1 caused by TGFβ (ENSG00000185920, Control vs. TGFβ): D (D = <1.0 to 1.5); Log2 TE POLR1D (ENSG00000186184, 5 replicates): 1.23; change in translational profile of POLR1D caused by TGFβ (ENSG00000186184, Control vs. TGFβ): E (E = <1.5 to 2.5); Log2 TE RPS23 (ENSG00000186468, 5 replicates): 1.302; Log2 TE DYNC2H1 (ENSG00000187240, 5 replicates): −1.228; change in translational profile of DYNC2H1 caused by TGFβ (ENSG00000187240, Control vs. TGFβ): B (B = <−1.5 to −2.5); Log2 TE TET3 (ENSG00000187605, 5 replicates): 1.541; Log2 TE ZSCAN23 (ENSG00000187987, 5 replicates): −1.048; Log2 TE RPL14 (ENSG00000188846, 5 replicates): 1.745; change in translational profile of RPL14 caused by TGFβ (ENSG00000188846, Control vs. TGFβ): E (E = <1.5 to 2.5); change in translational profile of LRRK2 caused by TGFβ (ENSG00000188906, Control vs. TGFβ): C (C = <−1.0 to −1.5); Log2 TE ZNF33A (ENSG00000189180, 5 replicates): −1.058; Log2 TE KIAA0408 (ENSG00000189367, 5 replicates): −1.283; Log2 TE ZBTB44 (ENSG00000196323, 5 replicates): −1.222; Log2 TE NACA (ENSG00000196531, 5 replicates): 1.083; change in translational profile of NACA caused by TGFβ (ENSG00000196531, Control vs. TGFβ): E (E = <1.5 to 2.5); Log2 TE ADH1B (ENSG00000196616, 5 replicates): −2.795; Log2 TE TOMM7 (ENSG00000196683, 5 replicates): 1.126; change in translational profile of LAMB3 caused by TGFβ (ENSG00000196878, Control vs. TGFβ): D (D = <1.0 to 1.5); Log2 TE PCBP2 (ENSG00000197111, 5 replicates): 1.293; change in translational profile of PCBP2 caused by TGFβ (ENSG00000197111, Control vs. TGFβ): E (E = <1.5 to 2.5); Log2 TE MAP3K5 (ENSG00000197442, 5 replicates): −2.0153; change in translational profile of MAP3K5 caused by TGFβ (ENSG00000197442, Control vs. TGFβ): B (B = <−1.5 to −2.5); Log2 TE RPS26 (ENSG00000197728, 5 replicates): 1.09; Log2 TE RPL37A (ENSG00000197756, 5 replicates): 2.029; change in translational profile of RPL37A caused by TGFβ (ENSG00000197756, Control vs. TGFβ): E (E = <1.5 to 2.5); Log2 TE RPL12 (ENSG00000197958, 5 replicates): 1.878; change in translational profile of RPL12 caused by TGFβ (ENSG00000197958, Control vs. TGFβ): E (E = <1.5 to 2.5); Log2 TE DNM3 (ENSG00000197959, 5 replicates): −1.161; Log2 TE RPS4X (ENSG00000198034, 5 replicates): 1.534; Log2 TE LPAR1 (ENSG00000198121, 5 replicates): −1.448; change in translational profile of LPAR1 caused by TGFβ (ENSG00000198121, Control vs. TGFβ): C (C = <−1.0 to −1.5); Log2 TE ZNF607 (ENSG00000198182, 5 replicates): −1.108; Log2 TE RPL23A (ENSG00000198242, 5 replicates): 1.395; change in translational profile of RPL23A caused by TGFβ (ENSG00000198242, Control vs. TGFβ): E (E = <1.5 to 2.5); Log2 TE TPM2 (ENSG00000198467, 5 replicates): 1.077; change in translational profile of PLN caused by TGFβ (ENSG00000198523, Control vs. TGFβ): F (F = >2.5); Log2 TE RPL10A (ENSG00000198755, 5 replicates): 1.51; change in translational profile of RPL10A caused by TGFβ (ENSG00000198755, Control vs. TGFβ): E (E = <1.5 to 2.5); Log2 TE CES1 (ENSG00000198848, 5 replicates): 1.084; change in translational profile of CES1 caused by TGFβ (ENSG00000198848, Control vs. TGFβ): E (E = <1.5 to 2.5); Log2 TE RPL39 (ENSG00000198918, 5 replicates): 1.536; change in translational profile of RPL39 caused by TGFβ (ENSG00000198918, Control vs. TGFβ): E (E = <1.5 to 2.5); Log2 TE GPRASP1 (ENSG00000198932, 5 replicates): −1.239; Log2 TE RORB (ENSG00000198963, 5 replicates): −1.766; Log2 TE CARD16 (ENSG00000204397, 5 replicates): −1.076; change in translational profile of CARD16 caused by TGFβ (ENSG00000204397, Control vs. TGFβ): B (B = <−1.5 to −2.5); Log2 TE MICA (ENSG00000204520, 5 replicates): 1.143; change in translational profile of MICA caused by TGFβ (ENSG00000204520, Control vs. TGFβ): E (E = <1.5 to 2.5); Log2 TE GNB2L1 (ENSG00000204628, 5 replicates): 1.732; change in translational profile of GNB2L1 caused by TGFβ (ENSG00000204628, Control vs. TGFβ): E (E = <1.5 to 2.5); Log2 TE RPS29 (ENSG00000213741, 5 replicates): 1.571; Log2 TE RPL17 (ENSG00000215472, 5 replicates): 1.299; change in translational profile of RPL17 caused by TGFβ (ENSG00000215472, Control vs. TGFβ): E (E = <1.5 to 2.5); Log2 TE UBA52 (ENSG00000221983, 5 replicates): 1.125; Log2 TE BTBD19 (ENSG00000222009, 5 replicates): 1.524; Log2 TE RPL41 (ENSG00000229117, 5 replicates): 1.474; change in translational profile of RPL41 caused by TGFβ (ENSG00000229117, Control vs. TGFβ): E (E = <1.5 to 2.5); Log2 TE RPS18 (ENSG00000231500, 5 replicates): 2.003; Log2 TE C17orf108 (ENSG00000232859, 5 replicates): −1.329; Log2 TE RPS28 (ENSG00000233927, 5 replicates): 1.937; Log2 TE ARPC1A (ENSG00000241685, 5 replicates): 1.288; change in translational profile of ARPC1A caused by TGFβ (ENSG00000241685, Control vs. TGFβ): D (D = <1.0 to 1.5); Log2 TE IFITM10 (ENSG00000244242, 5 replicates): −1.299; Log2 TE FMN1 (ENSG00000248905, 5 replicates): −1.906; Log2 TE CHCHD10 (ENSG00000250479, 5 replicates): 2.519; change in translational profile of CHCHD10 caused by TGFβ (ENSG00000250479, Control vs. TGFβ): F (F = >2.5); Log2 TE SEPP1 (ENSG00000250722, 5 replicates): −1.035; Log2 TE EEF1G (ENSG00000254772, 5 replicates): 1.551; change in translational profile of EEF1G caused by TGFβ (ENSG00000254772, Control vs. TGFβ): E (E = <1.5 to 2.5); Log2 TE TEN1 (ENSG00000257949, 5 replicates): 1.361
